tested on: T-Rex 293 cells having increased expression of estrogen receptor alpha protein; experiment: Cellular growth inhibition assay, T-Rex 293 cells, (+) doxycycline; type: cell-based; settings: T-REx-293, 72 h, Table 7-A; T-Rex 293 cells with doxycycline (increased ERα expression); 72 hours; CellTiter-Glo; read-out: (+) Dox GI50
Summary of the method: (§1)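 ERα overexpression was switched on by 3 ng/mL doxycycline in a stably transfected T-Rex 293 clone, while uninduced cells served as the comparison line. Proliferation over 72 h of compound treatment was assessed by ATP luminescence, and GI50 values came from four-parameter curves.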

Compared with `Cc1sc2c(c1C)C(c1ccc(N3CC[C@@H](CNCCOc4ccc([C@@H]5c6ccc(O)cc6CC[C@@H]5c5ccccc5)cc4)C3)cc1)=NC(Cc1ncco1)c1nnc(C)n1-2` (stereo partly drawn) [III-61], `Cc1sc2c(c1C)C(c1ccc(N3CCO[C@@H](CNCCOc4ccc([C@@H]5c6ccc(O)cc6CC[C@@H]5c5ccccc5)cc4)C3)cc1)=NC(Cc1ncco1)c1nnc(C)n1-2` (stereo partly drawn) [III-66] is higher in GI50: less than 50 nM for the first, 50 to 500 nM for the second.

`Cc1sc2c(c1C)C(c1ccc(N3CCC(C)(CNCCOc4ccc([C@@H]5c6ccc(O)cc6CC[C@@H]5c5ccccc5)cc4)CC3)cc1)=NC(Cc1ncco1)c1nnc(C)n1-2` (stereo partly drawn) [III-62] and `Cc1sc2c(c1C)C(c1ccc(N3CCC4(CC3)CC(NCCOc3ccc([C@@H]5c6ccc(O)cc6CC[C@@H]5c5ccccc5)cc3)C4)cc1)=NC(Cc1ncco1)c1nnc(C)n1-2` (stereo partly drawn) [III-65] cannot be ordered by GI50: less than 50 nM for the first, less than 50 nM for the second.

First: Cc1sc2c(c1C)C(c1ccc(N3CCN(C4CCN(CCOc5ccc([C@@H]6c7ccc(O)cc7CC[C@@H]6c6ccccc6)cc5)CC4)CC3)cc1)=NC(Cc1ncco1)c1nnc(C)n1-2 (stereo partly drawn) [III-63]
Second: Cc1sc2c(c1C)C(c1ccc(N[C@@H]3C[C@H]4CCC[C@@H](C3)N4CCOc3ccc([C@@H]4c5ccc(O)cc5CC[C@@H]4c4ccccc4)cc3)cc1)=NC(Cc1ncco1)c1nnc(C)n1-2 (stereo partly drawn) [III-64]
The GI50 of the first is lower: less than 50 nM for the first, 50 to 500 nM for the second.

Compared with `Cc1sc2c(c1C)C(c1ccc(N3CCN(CC4CN(c5ccc([C@@H]6c7ccc(O)cc7CC[C@@H]6c6ccccc6)cc5)C4)CC3)cc1)=N[C@@H](C)c1nnc(C)n1-2` [III-67], `Cc1sc2c(c1C)C(c1ccc(N3CCN(CC4CN(c5ccc([C@H]6c7ccc(O)cc7CC[C@H]6c6ccccc6)cc5)C4)CC3)cc1)=N[C@@H](C)c1nnc(C)n1-2` [III-68] is higher in GI50: less than 50 nM for the first, 50 to 500 nM for the second.

`Cc1sc2c(c1C)C(c1ccc(OCC3CN(CC4CCN(c5ccc([C@H]6c7ccc(O)cc7CC[C@H]6c6ccccc6)cc5)CC4)C3)cc1)=N[C@@H](C)c1nnc(C)n1-2` [III-69] was tested, and the GI50 was 50 to 500 nM.

tested on: T-Rex 293 cells lacking increased expression of estrogen receptor alpha protein; experiment: Cellular growth inhibition assay, T-Rex 293 cells, (−) doxycycline; type: cell-based; settings: T-REx-293, 72 h, Table 7-A; T-Rex 293 cells without doxycycline (lacking increased ERα expression); 72 hours; CellTiter-Glo; read-out: (−) Dox GI50
Summary of the method: as §1

`Cc1sc2c(c1C)C(c1ccc(N3CC[C@@H](CNCCOc4ccc([C@@H]5c6ccc(O)cc6CC[C@@H]5c5ccccc5)cc4)C3)cc1)=NC(Cc1ncco1)c1nnc(C)n1-2` (stereo partly drawn) [III-61] and `Cc1sc2c(c1C)C(c1ccc(N3CCO[C@@H](CNCCOc4ccc([C@@H]5c6ccc(O)cc6CC[C@@H]5c5ccccc5)cc4)C3)cc1)=NC(Cc1ncco1)c1nnc(C)n1-2` (stereo partly drawn) [III-66] fall in the same range of GI50: 50 to 500 nM for the first, 50 to 500 nM for the second.

`Cc1sc2c(c1C)C(c1ccc(N3CCC(C)(CNCCOc4ccc([C@@H]5c6ccc(O)cc6CC[C@@H]5c5ccccc5)cc4)CC3)cc1)=NC(Cc1ncco1)c1nnc(C)n1-2` (stereo partly drawn) [III-62] and `Cc1sc2c(c1C)C(c1ccc(N3CCC4(CC3)CC(NCCOc3ccc([C@@H]5c6ccc(O)cc6CC[C@@H]5c5ccccc5)cc3)C4)cc1)=NC(Cc1ncco1)c1nnc(C)n1-2` (stereo partly drawn) [III-65] fall in the same range of GI50: 50 to 500 nM for the first, 50 to 500 nM for the second.

`Cc1sc2c(c1C)C(c1ccc(N3CCN(C4CCN(CCOc5ccc([C@@H]6c7ccc(O)cc7CC[C@@H]6c6ccccc6)cc5)CC4)CC3)cc1)=NC(Cc1ncco1)c1nnc(C)n1-2` (stereo partly drawn) [III-63] and `Cc1sc2c(c1C)C(c1ccc(N[C@@H]3C[C@H]4CCC[C@@H](C3)N4CCOc3ccc([C@@H]4c5ccc(O)cc5CC[C@@H]4c4ccccc4)cc3)cc1)=NC(Cc1ncco1)c1nnc(C)n1-2` (stereo partly drawn) [III-64] fall in the same range of GI50: 50 to 500 nM for the first, 50 to 500 nM for the second.

First: Cc1sc2c(c1C)C(c1ccc(N3CCN(CC4CN(c5ccc([C@@H]6c7ccc(O)cc7CC[C@@H]6c6ccccc6)cc5)C4)CC3)cc1)=N[C@@H](C)c1nnc(C)n1-2 [III-67]
Second: Cc1sc2c(c1C)C(c1ccc(N3CCN(CC4CN(c5ccc([C@H]6c7ccc(O)cc7CC[C@H]6c6ccccc6)cc5)C4)CC3)cc1)=N[C@@H](C)c1nnc(C)n1-2 [III-68]
The GI50 of the first is lower: less than 50 nM for the first, 500 to 2500 nM for the second.

In the case of `Cc1sc2c(c1C)C(c1ccc(OCC3CN(CC4CCN(c5ccc([C@H]6c7ccc(O)cc7CC[C@H]6c6ccccc6)cc5)CC4)C3)cc1)=N[C@@H](C)c1nnc(C)n1-2` [III-69], the GI50 is reported as 50 to 500 nM.

tested on: MCF7 cells (ATCC #HTB-22); experiment: Cellular growth inhibition assay, MCF7 cells purchased from ATCC; type: cell-based; settings: Homo sapiens, MCF7, 144 h, Table 8-A; MCF7 cells purchased from ATCC; six days; CellTiter-Glo; read-out: GI50
Summary of the method: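 MCF7 cells in RPMI 1640 with 10% FBS and 0.2 U/ml insulin, seeded at 1,500 cells/well (ATCC) or 225 cells/well (ECACC). Compounds added 24 h later, then 6 days at 37° C. Viability by CellTiter-Glo 2.0 luminescence. GI50 from four-parameter fit.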

First: Cc1sc2c(c1C)C(c1ccc(N3CC[C@@H](CNCCOc4ccc([C@@H]5c6ccc(O)cc6CC[C@@H]5c5ccccc5)cc4)C3)cc1)=NC(Cc1ncco1)c1nnc(C)n1-2 (stereo partly drawn) [III-61]
Second: Cc1sc2c(c1C)C(c1ccc(N3CCO[C@@H](CNCCOc4ccc([C@@H]5c6ccc(O)cc6CC[C@@H]5c5ccccc5)cc4)C3)cc1)=NC(Cc1ncco1)c1nnc(C)n1-2 (stereo partly drawn) [III-66]
The GI50 of the first is lower: less than 50 nM for the first, 50 to 500 nM for the second.

`Cc1sc2c(c1C)C(c1ccc(N3CCC(C)(CNCCOc4ccc([C@@H]5c6ccc(O)cc6CC[C@@H]5c5ccccc5)cc4)CC3)cc1)=NC(Cc1ncco1)c1nnc(C)n1-2` (stereo partly drawn) [III-62] and `Cc1sc2c(c1C)C(c1ccc(N3CCC4(CC3)CC(NCCOc3ccc([C@@H]5c6ccc(O)cc6CC[C@@H]5c5ccccc5)cc3)C4)cc1)=NC(Cc1ncco1)c1nnc(C)n1-2` (stereo partly drawn) [III-65] fall in the same range of GI50: 50 to 500 nM for the first, 50 to 500 nM for the second.

`Cc1sc2c(c1C)C(c1ccc(N3CCN(C4CCN(CCOc5ccc([C@@H]6c7ccc(O)cc7CC[C@@H]6c6ccccc6)cc5)CC4)CC3)cc1)=NC(Cc1ncco1)c1nnc(C)n1-2` (stereo partly drawn) [III-63] and `Cc1sc2c(c1C)C(c1ccc(N[C@@H]3C[C@H]4CCC[C@@H](C3)N4CCOc3ccc([C@@H]4c5ccc(O)cc5CC[C@@H]4c4ccccc4)cc3)cc1)=NC(Cc1ncco1)c1nnc(C)n1-2` (stereo partly drawn) [III-64] fall in the same range of GI50: 50 to 500 nM for the first, 50 to 500 nM for the second.

First: Cc1sc2c(c1C)C(c1ccc(N3CCN(CC4CN(c5ccc([C@@H]6c7ccc(O)cc7CC[C@@H]6c6ccccc6)cc5)C4)CC3)cc1)=N[C@@H](C)c1nnc(C)n1-2 [III-67]
Second: Cc1sc2c(c1C)C(c1ccc(N3CCN(CC4CN(c5ccc([C@H]6c7ccc(O)cc7CC[C@H]6c6ccccc6)cc5)C4)CC3)cc1)=N[C@@H](C)c1nnc(C)n1-2 [III-68]
The GI50 of the first is lower: less than 50 nM for the first, 50 to 500 nM for the second.

Work on `Cc1sc2c(c1C)C(c1ccc(OCC3CN(CC4CCN(c5ccc([C@H]6c7ccc(O)cc7CC[C@H]6c6ccccc6)cc5)CC4)C3)cc1)=N[C@@H](C)c1nnc(C)n1-2` [III-69] yielded a GI50 of 50 to 500 nM.

From patent US12558428B2, “Heterobifunctional compounds and their use in treating disease” (Halda Therapeutics OpCo, Inc., priority 2024, dated 2026)
